Results: patent US3948899A, “α-Cyanobenzylpiperazines and a process for producing the same” (Fuji Chemical Industry Co., Ltd., priority 1973, dated 1976)
Structures can show the parent of a compound that is named as a salt.

Legend:
mongrel adult dogs [1] = test: Effects on coronary sinus out flow (thoractomized anesthetized dogs, i.v.); assay type: in vivo, dog
Method: (§1) All experiments were conducted on male and female thoractomized mongrel adult dogs weighing about 10 Kg under anesthesia with pentobarbital sodium.
(§2) Arterial blood pressure was measured by pressure transducer (Nippon Koden MPU-0.5) connected with the cannula inserted from exposed carotid artery into aorta. Aortic blood flow was determined by means of electromagnetic flow meter (Nippon Koden MF-5) mounted at an origin of aorta. Coronary sinus out flow and coronary sinus oxygen tension were assessed by means of electromagnetic flow meter (Nippon Koden MF-5) and Po2 Macro electrode (Beckmann Moder 160-C), respectively, using Morawitz cannulization technique. Heart rate was measured by cardiotachometer (Nippon Koden RT-2) synchronized with systolic blood pressure of aorta.

[2] = prior art; cited from earlier work
mongrel adult dogs [3] = test: Effects on heart rate (thoractomized anesthetized dogs, i.v.); assay type: in vivo, dog
Method: as §1, §2

mongrel adult dogs [4] = test: Effects on aortic blood flow (thoractomized anesthetized dogs, i.v.); assay type: in vivo, dog
Method: as §1, §2

COc1ccc(CN2CCNCC2)c(OC)c1OC [Vastarel F, 2,3,4 -trimethoxybenzylpiperazine dihydrochloride]
-2.0%: Changes(%) of basal values, heart rate (mongrel adult dogs [3]; i.v. 2.0 mg/Kg, 1 min) | Changes(%) of basal values, heart rate (mongrel adult dogs [3]; i.v. 2.0 mg/Kg, 5 min)
-1.0%: Changes(%) of basal values, heart rate (mongrel adult dogs [3]; i.v. 0.2 mg/Kg, 10 min) | Changes(%) of basal values, heart rate (mongrel adult dogs [3]; i.v. 0.6 mg/Kg, 15 min) | Changes(%) of basal values, heart rate (mongrel adult dogs [3]; i.v. 0.6 mg/Kg, 20 min) | Changes(%) of basal values, heart rate (mongrel adult dogs [3]; i.v. 0.6 mg/Kg, 25 min) | Changes(%) of basal values, heart rate (mongrel adult dogs [3]; i.v. 2.0 mg/Kg, 15 min) | Changes(%) of basal values, heart rate (mongrel adult dogs [3]; i.v. 2.0 mg/Kg, 25 min) | Changes(%) of basal values, aortic blood flow (mongrel adult dogs [4]; i.v. 0.6 mg/Kg, 10 min) | Changes(%) of basal values, aortic blood flow (mongrel adult dogs [4]; i.v. 0.6 mg/Kg, 15 min) | Changes(%) of basal values, aortic blood flow (mongrel adult dogs [4]; i.v. 0.6 mg/Kg, 20 min)
+0.5%: Changes(%) of basal values, heart rate (mongrel adult dogs [3]; i.v. 0.6 mg/Kg, 1 min) | Changes(%) of basal values, heart rate (mongrel adult dogs [3]; i.v. 0.6 mg/Kg, 5 min) | Changes(%) of basal values, aortic blood flow (mongrel adult dogs [4]; i.v. 0.6 mg/Kg, 1 min)
+10.0%: Changes(%) of basal values, aortic blood flow (mongrel adult dogs [4]; i.v. 2.0 mg/Kg, 15 min)
+5.0%: Changes(%) of basal values, aortic blood flow (mongrel adult dogs [4]; i.v. 2.0 mg/Kg, 20 min) | Changes(%) of basal values, aortic blood flow (mongrel adult dogs [4]; i.v. 2.0 mg/Kg, 30 min)
+23.0%: Changes(%) of basal values, aortic blood flow (mongrel adult dogs [4]; i.v. 2.0 mg/Kg, 10 min)
+8.0%: Changes(%) of basal values, coronery sinus out flow (mongrel adult dogs [1]; i.v. 2.0 mg/Kg, 15 min)
+4.0%: Changes(%) of basal values, coronery sinus out flow (mongrel adult dogs [1]; i.v. 0.2 mg/Kg, imm.) | Changes(%) of basal values, coronery sinus out flow (mongrel adult dogs [1]; i.v. 2.0 mg/Kg, 20 min)
+1.0%: Changes(%) of basal values, coronery sinus out flow (mongrel adult dogs [1]; i.v. 0.2 mg/Kg, 1 min) | Changes(%) of basal values, coronery sinus out flow (mongrel adult dogs [1]; i.v. 2.0 mg/Kg, 25 min)
-1.5%: Changes(%) of basal values, heart rate (mongrel adult dogs [3]; i.v. 0.2 mg/Kg, 5 min) | Changes(%) of basal values, heart rate (mongrel adult dogs [3]; i.v. 2.0 mg/Kg, 10 min) | Changes(%) of basal values, heart rate (mongrel adult dogs [3]; i.v. 2.0 mg/Kg, 20 min) | Changes(%) of basal values, heart rate (mongrel adult dogs [3]; i.v. 2.0 mg/Kg, 30 min) | Changes(%) of basal values, aortic blood flow (mongrel adult dogs [4]; i.v. 0.6 mg/Kg, 25 min)
+1.5%: Changes(%) of basal values, heart rate (mongrel adult dogs [3]; i.v. 0.2 mg/Kg, imm.) | Changes(%) of basal values, heart rate (mongrel adult dogs [3]; i.v. 0.6 mg/Kg, imm.) | Changes(%) of basal values, aortic blood flow (mongrel adult dogs [4]; i.v. 0.6 mg/Kg, imm.)
+3.0%: Changes(%) of basal values, coronery sinus out flow (mongrel adult dogs [1]; i.v. 2.0 mg/Kg, 5 min)
+9.0%: Changes(%) of basal values, coronery sinus out flow (mongrel adult dogs [1]; i.v. 2.0 mg/Kg, 10 min)
0%: Changes(%) of basal values, coronery sinus out flow (mongrel adult dogs [1]; i.v. 0.2 mg/Kg, 5 min) | Changes(%) of basal values, coronery sinus out flow (mongrel adult dogs [1]; i.v. 0.2 mg/Kg, 10 min) | Changes(%) of basal values, coronery sinus out flow (mongrel adult dogs [1]; i.v. 0.2 mg/Kg, 15 min) | Changes(%) of basal values, coronery sinus out flow (mongrel adult dogs [1]; i.v. 0.2 mg/Kg, 20 min) | Changes(%) of basal values, coronery sinus out flow (mongrel adult dogs [1]; i.v. 0.2 mg/Kg, 25 min) | Changes(%) of basal values, coronery sinus out flow (mongrel adult dogs [1]; i.v. 0.2 mg/Kg, 30 min) | Changes(%) of basal values, coronery sinus out flow (mongrel adult dogs [1]; i.v. 0.6 mg/Kg, 10 min) | Changes(%) of basal values, coronery sinus out flow (mongrel adult dogs [1]; i.v. 0.6 mg/Kg, 15 min) | Changes(%) of basal values, coronery sinus out flow (mongrel adult dogs [1]; i.v. 0.6 mg/Kg, 20 min) | Changes(%) of basal values, coronery sinus out flow (mongrel adult dogs [1]; i.v. 0.6 mg/Kg, 25 min) | Changes(%) of basal values, coronery sinus out flow (mongrel adult dogs [1]; i.v. 0.6 mg/Kg, 30 min) | Changes(%) of basal values, coronery sinus out flow (mongrel adult dogs [1]; i.v. 2.0 mg/Kg, 30 min) | Changes(%) of basal values, heart rate (mongrel adult dogs [3]; i.v. 0.2 mg/Kg, 1 min) | Changes(%) of basal values, heart rate (mongrel adult dogs [3]; i.v. 0.2 mg/Kg, 15 min) | Changes(%) of basal values, heart rate (mongrel adult dogs [3]; i.v. 0.2 mg/Kg, 20 min) | Changes(%) of basal values, heart rate (mongrel adult dogs [3]; i.v. 0.2 mg/Kg, 25 min) | Changes(%) of basal values, heart rate (mongrel adult dogs [3]; i.v. 0.2 mg/Kg, 30 min) | Changes(%) of basal values, heart rate (mongrel adult dogs [3]; i.v. 0.6 mg/Kg, 10 min) | Changes(%) of basal values, heart rate (mongrel adult dogs [3]; i.v. 0.6 mg/Kg, 30 min) | Changes(%) of basal values, aortic blood flow (mongrel adult dogs [4]; i.v. 0.2 mg/Kg, 1 min) | Changes(%) of basal values, aortic blood flow (mongrel adult dogs [4]; i.v. 0.2 mg/Kg, 5 min) | Changes(%) of basal values, aortic blood flow (mongrel adult dogs [4]; i.v. 0.2 mg/Kg, 10 min) | Changes(%) of basal values, aortic blood flow (mongrel adult dogs [4]; i.v. 0.2 mg/Kg, 15 min) | Changes(%) of basal values, aortic blood flow (mongrel adult dogs [4]; i.v. 0.2 mg/Kg, 20 min) | Changes(%) of basal values, aortic blood flow (mongrel adult dogs [4]; i.v. 0.2 mg/Kg, 25 min) | Changes(%) of basal values, aortic blood flow (mongrel adult dogs [4]; i.v. 0.2 mg/Kg, 30 min) | Changes(%) of basal values, aortic blood flow (mongrel adult dogs [4]; i.v. 0.2 mg/Kg, imm.) | Changes(%) of basal values, aortic blood flow (mongrel adult dogs [4]; i.v. 0.6 mg/Kg, 5 min) | Changes(%) of basal values, aortic blood flow (mongrel adult dogs [4]; i.v. 0.6 mg/Kg, 30 min) | Changes(%) of basal values, aortic blood flow (mongrel adult dogs [4]; i.v. 2.0 mg/Kg, 1 min)
+5.5%: Changes(%) of basal values, heart rate (mongrel adult dogs [3]; i.v. 2.0 mg/Kg, imm.)
+2.5%: Changes(%) of basal values, coronery sinus out flow (mongrel adult dogs [1]; i.v. 0.6 mg/Kg, 1 min) | Changes(%) of basal values, coronery sinus out flow (mongrel adult dogs [1]; i.v. 0.6 mg/Kg, 5 min)
-3.0%: Changes(%) of basal values, coronery sinus out flow (mongrel adult dogs [1]; i.v. 2.0 mg/Kg, 1 min)
+6.0%: Changes(%) of basal values, coronery sinus out flow (mongrel adult dogs [1]; i.v. 0.6 mg/Kg, imm.) | Changes(%) of basal values, aortic blood flow (mongrel adult dogs [4]; i.v. 2.0 mg/Kg, 25 min)
+11.0%: Changes(%) of basal values, aortic blood flow (mongrel adult dogs [4]; i.v. 2.0 mg/Kg, 5 min)
depressant effect on the heart: Effect on the heart, disadvantage (in words) [2]
-13.0%: Changes(%) of basal values, coronery sinus out flow (mongrel adult dogs [1]; i.v. 2.0 mg/Kg, imm.)
-78.0%: Changes(%) of basal values, aortic blood flow (mongrel adult dogs [4]; i.v. 2.0 mg/Kg, imm.)
